Test results: article PMC6009889, “Kinetic and structural studies on the interactions of Torpedo californica acetylcholinesterase with two donepezil-like rigid analogues” (Journal of Enzyme Inhibition and Medicinal Chemistry, 2018)
Like-named read-outs stand apart in the source and are kept apart here.

How the values were obtained:
mouse BACE-1 = details: read-out: IC50 for mouse BACE-1 inhibition; cited from earlier work
[1] = target: Torpedo californica AChE (TcAChE) (Tetronarce californica, UniProt P04058); assay: biochemical; type: biochemical; details: for Type of inhibition: Lineweaver-Burk, Dixon and Cornish-Bowden plots
Chain of Torpedo californica AChE (TcAChE) (P04058 22-586): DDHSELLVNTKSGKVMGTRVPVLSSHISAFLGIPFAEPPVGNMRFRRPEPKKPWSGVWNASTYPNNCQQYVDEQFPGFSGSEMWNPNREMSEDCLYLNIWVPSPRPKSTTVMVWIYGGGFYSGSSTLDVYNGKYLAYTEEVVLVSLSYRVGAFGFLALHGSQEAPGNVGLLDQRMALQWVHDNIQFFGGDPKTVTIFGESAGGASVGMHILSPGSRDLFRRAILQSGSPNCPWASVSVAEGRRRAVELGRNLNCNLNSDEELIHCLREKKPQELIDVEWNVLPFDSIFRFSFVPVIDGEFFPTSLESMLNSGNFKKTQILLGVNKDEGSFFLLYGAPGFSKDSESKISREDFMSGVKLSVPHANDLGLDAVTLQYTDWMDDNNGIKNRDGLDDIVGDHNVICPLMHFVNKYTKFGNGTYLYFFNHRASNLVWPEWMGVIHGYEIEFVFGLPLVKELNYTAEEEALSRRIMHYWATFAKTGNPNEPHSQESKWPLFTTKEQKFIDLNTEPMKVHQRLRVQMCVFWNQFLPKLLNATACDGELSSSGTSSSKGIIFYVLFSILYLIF
Method: The enzymatic activity of TcAChE was evaluated spectrophotometrically at room temperature by Ellman’s method[42] using a GE Ultrospec 7000 double beam spectrophotometer. […] The reaction was initiated by addition to the reaction mixture of the substrate acetylthiocoline (Sigma-Aldrich, Milan, Italy). To gain insights into the mechanism of action of 1, 2 and DNP, reciprocal plots of 1/velocity versus 1/[substrate] were constructed at substrate concentration in the 10–200 µM range. Data points are average values of three replicates. Three concentrations of inhibitors were selected for this study: 5, 10, and 20 nM. The plots were assessed by a weighted least-squares analysis that assumed the variance of the velocity (v) to be a constant percentage of v for the entire data set. Calculation of the inhibitor constant (Ki) value was carried out by re-plotting slopes of lines from the Lineweaver–Burk plot versus the inhibitor concentration and Ki was determined as the intersect on the negative x-axis. The apparent Ki’ (dissociation constant for the enzyme–substrate–inhibitor complex) value was determined by plotting the apparent 1/vmax versus inhibitor concentration. Data analyzes were performed with Graph 4.4.2.

| SMILES | IC50 (mouse BACE-1) | Ki [1] | Type of inhibition [1] | Ki ([1]; acetylthiocholine 10–200 µM, inhibitor 5, 10, 20 nM, K-phosphate buffer pH 7.0, room temperature, read-out: Ki (dissociation constant for free enzyme)) |
| --- | --- | --- | --- | --- |
| COc1cc2c(cc1OC)C(=O)/C(=C/C1CCN(Cc3ccccc3)CC1)C2 [compound 1] | 697 nM | 11.1 ± 2.88 nM | mixed-type inhibition |  |
| COc1ccc2c(c1)C/C(=C\C1CCN(Cc3ccccc3)CC1)C2=O [compound 2] | 333 nM |  | mixed-type inhibition | 29.9 ± 1.12 nM |
